# Assay: physchem
# Settings: HBSS buffer, pH 6.5
structure (smiles),measurement,value
CCOC(=O)c1cnc(N2CCN(C(=O)Nc3ccccc3)CC2)c(C#N)c1,solubility,90 µM
C[C@]12CC[C@H]3[C@@H](CCC4=CC(=O)CC[C@@]43C)[C@@H]1CC[C@@H]2O [TESTOSTERONE],solubility,75 µM
CCOC(=O)C1=C(C)NC(C)=C(C(=O)OC)C1c1cccc(Cl)c1Cl (stereo not given) [FELODIPINE],solubility,1 µM
CCOC(=O)c1cnc(N2CCN(C(=O)Nc3ccccc3)CC2)c(Cl)c1,solubility,40 µM
CCOC(=O)c1cc(C#N)c(N2CCN(C(=O)Nc3ccccc3)CC2)nc1C(F)(F)F,solubility,< 0.1 µM

# Source: ChEMBL document CHEMBL1782056, “A novel series of piperazinyl-pyridine ureas as antagonists of the purinergic P2Y12 receptor” (Bioorg Med Chem Lett, 2011)
